Consider 36 molecules from patent US20130281445A1 (priority 2011, published 2013).

T1 sequence (P35790 whole entry): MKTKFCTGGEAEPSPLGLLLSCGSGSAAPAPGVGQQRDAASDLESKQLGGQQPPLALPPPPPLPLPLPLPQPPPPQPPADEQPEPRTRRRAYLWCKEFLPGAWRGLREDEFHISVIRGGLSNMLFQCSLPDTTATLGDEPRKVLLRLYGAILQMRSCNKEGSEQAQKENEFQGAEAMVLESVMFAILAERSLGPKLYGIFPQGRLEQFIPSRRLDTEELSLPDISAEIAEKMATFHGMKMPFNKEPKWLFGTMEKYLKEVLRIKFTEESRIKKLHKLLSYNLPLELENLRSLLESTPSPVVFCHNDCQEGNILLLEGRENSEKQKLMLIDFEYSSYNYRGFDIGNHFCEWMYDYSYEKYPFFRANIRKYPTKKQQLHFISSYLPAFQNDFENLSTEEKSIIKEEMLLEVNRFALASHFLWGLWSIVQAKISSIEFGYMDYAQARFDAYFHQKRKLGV

The first test has as its target T1, Choline Kinase alpha enzyme (Homo sapiens, UniProt P35790).
T1 construct: hChoKα1(M1-V457) (NP_001268); GST (N); made in house; host or cells: E. coli BL21(DE3)
Briefly: Choline Kinase Alpha Inhibition Assay (coupled NADH absorbance).
Conditions: not given
In kind it is biochemical. How it is done: An assay buffer solution was prepared which consisted of 100 mM Tris-HCl (pH 7.5), 100 mM KCl, and 10 mM MgCl2. An enzyme buffer containing reagents to final assay concentrations of 290 μM NADH, 2.4 mM phosphoenolpyruvate, 60 μg/mL pyruvate kinase, 20 μg/mL lactate dehydrogenase, 200 μM choline chloride substrate and 20 nM Choline Kinase alpha enzyme was prepared in assay buffer. To 32 μL of this enzyme buffer, in a 96 well plate, was added 2 μL of VRT stock solution in DMSO. The mixture was allowed to equilibrate for 10 mins at 25° C. The enzyme reaction was initiated by the addition of 32 μL stock ATP solution prepared in assay buffer to a final assay concentration of 400 μM. Initial rate data was determined from the rate of change of absorbance at 340 nm (corresponding to stoichiometric consumption of NADH) using a Molecular Devices Spectramax plate reader (Sunnyvale, Calif.) over 15 mins at 25° C. For each IC50 determination, 12 data points covering the VRT concentration range of 0-100 μM were obtained in duplicate (DMSO stocks were prepared from an initial 10 mM VRT stock with subsequent 1:2.5 serial dilutions). IC50 values were calculated from initial rate data using the Prism software package (Prism 4.0a, Graphpad Software, San Diego, Calif.).
hChoKα1(M1-V457) (NP_001268) was codon optimized for E. coli and cloned into a modified pGEX-2T vector. Recombinant GST-tagged ChoKα1 protein was produced in E. coli strain BL21(DE3). After growing cell cultures at 37° C. until the OD600=1, the cultures were induced with 1 mM IPTG for 16 h at 30° C. and the cells were harvested as a pellet (8500 rpm, 4° C., 20 min). The protein was purified using glutathione affinity purification followed by size exclusion via Superdex-200 26/60 (GE Healthcare). See Malito, Enrico et. al., “Journal of Molecular Biology”, Volume 364, Issue 2, pages 136-151 (November 2006).
With `CN(C)c1ccc(C(=O)C2CN3CCC2CC3)cc1` (stereo not drawn) [Compound I-1, (4-dimethylaminophenyl)-quinuclidin-3-yl-methanone], the IC50 (usually the concentration needed to halve the response being measured) was under 0.1 µM.

With `O=C(c1ccc(N2CCCC2)cc1)C1CN2CCC1CC2` (stereo not drawn) [Compound I-3, (4-pyrrolidin-1-ylphenyl)-quinuclidin-3-yl-methanone], the IC50 was under 0.1 µM.

`O=C(c1ccc(-c2ccccc2)cc1)C1CN2CCC1CC2` (stereo not drawn) [Compound I-14, (4-phenylphenyl)-quinuclidin-3-yl-methanone] yielded an IC50 of 1 to 50 µM.

As for `CN1CCOc2cc(C(=O)C3CN4CCC3CC4)ccc21` (stereo not drawn) [Compound I-5], the IC50 was under 0.1 µM.

The same test, now with this note: 20 nM enzyme, 200 μM choline chloride, 400 μM ATP, 25° C.; read-out: IC50 values, Choline Kinase Alpha inhibition.
Consider `CN(C)c1c(Br)cc(C(=O)C2CN3CCC2CC3)cc1Br` (stereo not drawn) [Compound I-26, [3,5-dibromo-4-(dimethylamino)phenyl]-quinuclidin-3-yl-methanone], for which the 50% inhibitory concentration (IC50) is 1 to 50 µM.

For `CN(C)c1ccc(C(=O)C2CN3CCC2CC3)cc1Br` (stereo not drawn) [Compound I-25, [3-bromo-4-(dimethylamino)phenyl]-quinuclidin-3-yl-methanone], the half-maximal inhibitory concentration (IC50) was 0.1 to 1 µM.

On to `CN1CCN(C)c2cc(C(=O)C3CN4CCC3CC4)ccc21` (stereo not drawn) [Compound I-28, (1,4-dimethyl-2,3-dihydroquinoxalin-6-yl)-quinuclidin-3-yl-methanone], for which the IC50 lay within 0.1 to 1 µM.

As for `O=C(c1nc2ccccc2s1)C1CN2CCC1CC2` (stereo not drawn) [Compound I-22, benzo[d]thiazol-2-yl(quinuclidin-3-yl)methanone], the IC50 was in the range of 1 to 50 µM.

For the molecule `Cc1ncccc1C(=O)C1CN2CCC1CC2` (stereo not drawn) [Compound I-24, (2-methyl-3-pyridyl)-quinuclidin-3-yl-methanone], the IC50 lay within 1 to 50 µM.

As for `COc1cc(OC)cc(C(=O)C2CN3CCC2CC3)c1` (stereo not drawn) [Compound I-12, (3,5-dimethoxyphenyl)-quinuclidin-3-yl-methanone], the IC50 is 1 to 50 µM.

On to `O=C(c1ccc2c(c1)OCO2)C1CN2CCC1CC2` (stereo not drawn) [Compound I-15, 1,3-benzodioxol-5-yl(quinuclidin-3-yl)methanone], for which the IC50 fell in the range of 1 to 50 µM.

Take `O=C(c1cccc(F)c1)C1CN2CCC1CC2` (stereo not drawn) [Compound I-9, (3-fluorophenyl)-quinuclidin-3-yl-methanone]: the half-inhibitory concentration (IC50) lay in the range of 1 to 50 µM.

Consider `O=C(c1cccc2ccccc12)C1CN2CCC1CC2` (stereo not drawn) [Compound I-17, 1-naphthyl(quinuclidin-3-yl)methanone], for which the half-inhibitory concentration (IC50) is 1 to 50 µM.

As for `Cc1ccc(Cl)cc1C(=O)C1CN2CCC1CC2` (stereo not drawn) [Compound I-23, (5-chloro-2-methylphenyl)(quinuclidin-3-yl)methanone], the IC50 lay within 1 to 50 µM.

As to `O=C(Cc1ccccc1)C1CN2CCC1CC2` (stereo not drawn) [Compound I-6, 2-phenyl-1-(quinuclidin-3-yl)ethanone], the IC50 lay within 1 to 50 µM.

Take `CCCc1ccc(C(=O)C2CN3CCC2CC3)cc1` (stereo not drawn) [Compound I-13, (4-propylphenyl)-quinuclidin-3-yl-methanone]: the IC50 lay in the range of 0.1 to 1 µM.

On to `Cc1ccccc1C(=O)C1CN2CCC1CC2` (stereo not drawn) [Compound I-31, o-tolyl(quinuclidin-3-yl)methanone], for which the IC50 was in the range of 1 to 50 µM.

With `O=C(c1ccc(F)cc1)C1CN2CCC1CC2` (stereo not drawn) [Compound I-10, (4-fluorophenyl)-quinuclidin-3-yl-methanone], the IC50 was in the range of 1 to 50 µM.

As for `Cc1cc(C(=O)C2CN3CCC2CC3)ccc1N(C)C` (stereo not drawn) [Compound I-27, (4-(dimethylamino)-3-methylphenyl)(quinuclidin-3-yl)methanone], the IC50 lay within 0.1 to 1 µM.

`CC(C)(C)c1ccc(C(=O)C2CN3CCC2CC3)cc1` (stereo not drawn) [Compound I-20, (4-tert-butylphenyl)-quinuclidin-3-yl-methanone]: the 50% inhibitory concentration (IC50) is 0.1 to 1 µM.

Regarding `CCc1ccc(C(=O)C2CN3CCC2CC3)cc1` (stereo not drawn) [Compound I-16, (4-ethylphenyl)-quinuclidin-3-yl-methanone], the half-inhibitory concentration (IC50) fell in the range of 0.1 to 1 µM.

Regarding `O=C(c1cccc(Cl)c1)C1CN2CCC1CC2` (stereo not drawn) [Compound I-33, (3-chlorophenyl)-quinuclidin-3-yl-methanone], the 50% inhibitory concentration (IC50) is 1 to 50 µM.

On to `CN1CCc2cc(C(=O)C3CN4CCC3CC4)ccc21` (stereo not drawn) [Compound I-30], for which the IC50 was 0.1 to 1 µM.

For `O=C(c1ccccc1)C1CN2CCC1CC2` (stereo not drawn) [Compound I-35, phenyl(quinuclidin-3-yl)methanone], the concentration for half-maximal inhibition (IC50) fell in the range of 1 to 50 µM.

For `O=C(c1ccc(N2CCCCC2)cc1)C1CN2CCC1CC2` (stereo not drawn) [Compound I-4, [4-(1-piperidyl)phenyl]-quinuclidin-3-yl-methanone], the IC50 was in the range of 0.1 to 1 µM.

As for `O=C(c1cccc(-c2ccccc2)c1)C1CN2CCC1CC2` (stereo not drawn) [Compound I-18, (3-phenylphenyl)-quinuclidin-3-yl-methanone], the IC50 lay in the range of 1 to 50 µM.

`COc1ccc(C(=O)C2CN3CCC2CC3)cc1` (stereo not drawn) [Compound I-7, (4-methoxyphenyl)-quinuclidin-3-yl-methanone]: the IC50 lay in the range of 1 to 50 µM.

As for `O=C(c1ccc2ccccc2c1)C1CN2CCC1CC2` (stereo not drawn) [Compound I-8, 2-naphthyl(quinuclidin-3-yl)methanone], the IC50 lay in the range of 0.1 to 1 µM.

As for `Cc1ccc(C(=O)C2CN3CCC2CC3)cc1` (stereo not drawn) [Compound I-32, p-tolyl(quinuclidin-3-yl)methanone], the IC50 lay within 1 to 50 µM.

In the case of `CC(C)c1ccc(C(=O)C2CN3CCC2CC3)cc1` (stereo not drawn) [Compound I-36], the IC50 fell in the range of 0.1 to 1 µM.

For `CC(O)c1ccc(C(=O)C2CN3CCC2CC3)cc1` (stereo not drawn) [Compound I-29, [4-(1-hydroxyethyl)phenyl]-quinuclidin-3-yl-methanone], the IC50 lay in the range of 1 to 50 µM.

Consider `CCN(CC)c1ccc(C(=O)C2CN3CCC2CC3)cc1` (stereo not drawn) [Compound I-2, [4-(diethylamino)phenyl]-quinuclidin-3-yl-methanone], for which the IC50 is 0.1 to 1 µM.

For `Cc1cccc(C(=O)C2CN3CCC2CC3)c1C` (stereo not drawn) [Compound I-21, (2,3-dimethylphenyl)-quinuclidin-3-yl-methanone], the IC50 fell in the range of 1 to 50 µM.

With `O=C(c1ccc(F)c(Cl)c1)C1CN2CCC1CC2` (stereo not drawn) [Compound I-11, (3-chloro-4-fluoro-phenyl)-quinuclidin-3-yl-methanone], the half-maximal inhibitory concentration (IC50) fell in the range of 1 to 50 µM.

Consider `O=C(c1ccc(Cl)cc1)C1CN2CCC1CC2` (stereo not drawn) [Compound I-34, (4-chlorophenyl)-quinuclidin-3-yl-methanone], for which the IC50 lay in the range of 1 to 50 µM.

As to `O=C(c1ccc(OC(F)(F)F)cc1)C1CN2CCC1CC2` (stereo not drawn) [Compound I-19, quinuclidin-3-yl-[4-(trifluoromethoxy)phenyl]methanone], the concentration for half-maximal inhibition (IC50) was in the range of 1 to 50 µM.
